US20230063321A1, “Methods for Treating Inflammatory Bowel Diseases with alpha4beta7 Integrin Antagonists” (Protagonist Therapeutics, Inc., priority 2020, published 2023)
Several values for one entry are separate records, joined by “and”; a condition that tells them apart may be missing. Equal values may be shown once. Numbered stars: 1 amine (or outer) side, 2 acyl side, 3 side chain; on linkers, the order of the positions; unused ones are H or OH. Bridge positions count the residues as written; N and C are the ends. Square brackets hold non-standard residues; d marks the D form. Peptide text beside a SMILES is read from it. I, II: the chains in the order shown. ξ: configuration not given here. Phe(4-tBu) = CC(C)(C)c1ccc(C[C@H](N)C(=O)O)cc1; Diglycolyl = O=C(COCC(=O)[*:2])[*:1]; NMeR = CN[C@@H](CCCNC(=N)N)C(=O)O; β3hE = N[C@@H](CCC(=O)O)CC(=O)O; Thr(3ξ) = CC(O)[C@H](N)C(=O)O; X1 = O=C(c1ccccc1C[*:2])[*:1]; Pen = CC(C)(S)[C@H](N)C(=O)O

Assay: Study 1 pharmacokinetics in healthy male volunteers (liquid solution)
Details: for dose excreted at 24 h: 24-hour fecal recovery, intact, multiple dose; for Tmax: Tmax (h)

CC(C)C[C@@H]1NC(=O)[C@H](C(C)O)NC(=O)[C@H](CC(=O)O)NC(=O)[C@H](CO)NC(=O)[C@H](CCCNC(=N)N)N(C)C(=O)c2ccccc2CSC(C)(C)[C@@H](C(=O)N[C@@H](Cc2ccc(C(C)(C)C)cc2)C(=O)N[C@@H](CCC(=O)O)CC(=O)N[C@H](CCCCNC(=O)COCC(=O)NCCCC[C@@H](NC(=O)C[C@H](CCC(=O)O)NC(=O)[C@H](Cc2ccc(C(C)(C)C)cc2)NC(=O)[C@H]2NC(=O)[C@H](CC(C)C)NC(=O)[C@H](C(C)O)NC(=O)[C@H](CC(=O)O)NC(=O)[C@H](CO)NC(=O)[C@H](CCCNC(=N)N)N(C)C(=O)c3ccccc3CSC2(C)C)C(=O)O)C(=O)O)NC1=O (stereo partly drawn) [Compound A, ((2-Benzyl)-(N-Me-R)-Ser-Asp-Thr-Leu-Pen-(Phe(4-tBlu))-(β-homo-Glu)-(D-Lys)-OH)2 (SEQ ID NO: 5) and linker-DIG diglycolic acid] (I: [NMeR]SD[Thr(3ξ)]L[Pen][Phe(4-tBu)][β3hE][dK]-OH / II: [NMeR]SD[Thr(3ξ)]L[Pen][Phe(4-tBu)][β3hE][dK]-OH; linker I:9-II:9 via Diglycolyl; linker I:N-I:6, II:N-II:6 via X1)
accumulation with once daily dosing (Cmax and AUCt, Day 14 vs Day 1) (300 mg and 1000 mg): ≤ 30%
Fluctuation (%) (450 mg Twice Daily, Day 5, Mean ± SD): 143% and 143 ± 42%
Fluctuation (%) (450 mg Twice Daily, Day 5, Mean ± SD, listed as COMPOUND A): 143%
Fluctuation (%) (900 mg Once Daily, Day 5, Mean ± SD): 245 ± 81%
Fluctuation (%) (900 mg Once Daily, Day 5, Mean ± SD, listed as COMPOUND A): 245%
half-life (human, plasma, oral, 100 mg, t½ (h), 100 mg Fed once daily, Day 1, N = 1): 3.85 h
half-life (human, plasma, oral, 100 mg, t½ (h), 100 mg Fed once daily, Day 14, N = 1): 7.4 h
half-life (human, plasma, oral, 300 mg, t½ (h), 300 mg Fed once daily, Day 1, N = 1): 7.96 h
dose excreted at 24 h (male, human, faeces, oral, 300 mg, 300 mg fasted): 0.73%
dose excreted at 24 h (male, human, faeces, oral, 300 mg, 300 mg fed): 1.78%
dose excreted (male, human, faeces, oral, 300 mg, fecal recovery): 1 to 2%
dose excreted at 24 h (male, human, faeces, oral, 1000 mg): 16.8%
Tmax (male, human, plasma, oral, 100 mg, 100 mg Fed once daily, Day 1, Median (Min, Max)): 4 h
Tmax (male, human, plasma, oral, 100 mg, 100 mg Fed once daily, Day 14, Median (Min, Max)): 4 h
Tmax (male, human, plasma, oral, 100 mg, single dose 100 mg, Median (Min, Max)): 2 h
Cmax (male, human, plasma, oral, 100 mg, mean peak plasma concentration (Cmax), single dose 100 mg): 2.11 ng/mL
half-life (male, human, plasma, oral, 100 mg, t½ (h), single dose 100 mg, Mean ± SD, N = 4): 3.05 ± 0.71 h
Tmax (male, human, plasma, oral, 300 mg, 300 mg Fasted once daily, Day 1, Median (Min, Max)): 2 h
Tmax (male, human, plasma, oral, 300 mg, 300 mg Fasted once daily, Day 14, Median (Min, Max)): 2 h
Tmax (male, human, plasma, oral, 300 mg, 300 mg Fed once daily, Day 1, Median (Min, Max)): 4 h
Tmax (male, human, plasma, oral, 300 mg, 300 mg Fed once daily, Day 14, Median (Min, Max)): 4 h
Tmax (male, human, plasma, oral, 300 mg, single dose 300 mg Fasted, Median (Min, Max)): 3 h
Tmax (male, human, plasma, oral, 300 mg, single dose 300 mg High Fat Meal, Median (Min, Max)): 4 h
half-life (male, human, plasma, oral, 300 mg, mean elimination half-life, single doses 100 and 300 mg): 3.1 to 4 h
half-life (male, human, plasma, oral, 300 mg, t½ (h), 300 mg Fasted once daily, Day 1, Mean ± SD): 5.16 ± 1.92 h
half-life (male, human, plasma, oral, 300 mg, t½ (h), 300 mg Fasted once daily, Day 14, Mean ± SD, N = 7): 7.31 ± 3.86 h
half-life (male, human, plasma, oral, 300 mg, t½ (h), single dose 300 mg Fasted, Mean ± SD, N = 4): 4.02 ± 1.37 h
Tmax (male, human, plasma, oral, 450 mg, 450 mg Twice Daily, Day 1, Median (min, max)): 2 h
Tmax (male, human, plasma, oral, 450 mg, 450 mg Twice Daily, Day 5, Median (min, max)): 2 h
Tmax (male, human, plasma, oral, 900 mg, 900 mg Once Daily, Day 1, Median (min, max)): 2 h
Tmax (male, human, plasma, oral, 900 mg, 900 mg Once Daily, Day 5, Median (min, max)): 2 h
half-life (male, human, plasma, oral, 900 mg, t½ (h), 900 mg Once Daily, Day 1, Mean ± SD): 5.27 ± 2.4 h
half-life (male, human, plasma, oral, 900 mg, t½ (h), 900 mg Once Daily, Day 5, Mean ± SD): 6.24 ± 2.97 h
Tmax (male, human, plasma, oral, 1000 mg, 1000 mg Fasted once daily, Day 1, Median (Min, Max)): 2 h
Tmax (male, human, plasma, oral, 1000 mg, 1000 mg Fasted once daily, Day 14, Median (Min, Max)): 2 h
Tmax (male, human, plasma, oral, 1000 mg, single dose 1000 mg, Median (Min, Max)): 4 h
half-life (male, human, plasma, oral, 1000 mg, t½ (h), 1000 mg Fasted once daily, Day 1, Mean ± SD): 6.6 ± 1.99 h
half-life (male, human, plasma, oral, 1000 mg, t½ (h), 1000 mg Fasted once daily, Day 14, Mean ± SD): 7.7 ± 3.69 h
half-life (male, human, plasma, oral, 1000 mg, t½ (h), single dose 1000 mg, Mean ± SD, N = 7): 5.26 ± 0.91 h
